{
  "source": "patent US5912372A",
  "about": "“Water-miscible esters of monoglycerides having antimicrobial activity” (priority 1997, dated 1999)",
  "tested_on": "human respiratory syncytial virus (RSV)",
  "assay": "RSV inhibition assay in LLC-MK2 cells, PBS as diluent",
  "assay_type": "cell-based",
  "settings": "compound alone",
  "experimental": "Additional studies were performed to determine the synergistic anti-viral effects of diacetyltartaric acids esters of monoglycerides, lipophilic monoglycerides (MG) and carrageenan. These studies were carried out using […] and PBS as the diluent. The RSV inhibition assay semi-quantitativelydetermines the ability of a test material (antibody or other bioactive compound) to inhibit the infection of monkey kidney cells (LLC-MK2) by human respiratory syncytial virus (RSV). Infected cells are identified using an immunoperoxidase method and counted. The method is performed in a microtiter format and is described briefly below:\nLLC-MK2 rhesus monkey kidney cells were obtained from the American Type Culture Collection and were cultured in Eagles modified essential medium (EMEM) supplemented with 10% fetal bovine serum. For RSV inhibition assays, LLC-MK2 cells at 5,000 cells/well were seeded into fibronectin treated microtiter plates and incubated for 3-4 days prior to use in the infectivity reduction assay. […] Plates were then rinsed as above with PBS/CEA, and the number of stained RSV-infected cells (IC) per well determined using an inverted microscope. The number of ICs' in triplicate wells was compared with the number of ICs' of virus control wells (mean of 9) and the percent inhibition (PI) calculated; [PI=1.0-[Mean ICs' per well of test sample/Mean ICs' per well of virus control]. […]",
  "data": [
    {"substance": "Carrageenan", "values": [
      {"measurement": "Enhancement Factor", "result": 1.0}
    ]}
  ]
}
